Test results taken from patent US20090076130A1, “COMPOUNDS FOR THE INHIBITION OF HISTONE DEACETYLASE” (NATUREWISE BIOTECH & MEDICALS CORPORATION, priority 2007, published 2009).

Tests used:
MCF-7 cancer cells = assay: Cell cycle / DNA of MCF-7 cells by FACScan cytometry; assay type: cell-based, human; settings: 72 hours
Procedure: (§1) 1×10^6 of rat C6 glioma cells were treated with various concentrations of NBM-HD-1 (0 μg/mL, 2.5 μg/mL, 5 μg/mL, and 10 μg/mL) for 72 hours. The treated cells were trysinized and collected. The cells were resuspended in 200 μL PBS and then fixed by adding 800 μL of cold 100% ethanol. The resulting cells were fixed overnight at −20°. The cell pellets were collected by centrifugation, resuspended in 1 mL of hypotonic buffer (0.5% Triton X-100 in PBS and 1 μg/mL RNase A), and incubated at 37° for 30 minutes. Then, 1 mL of PI solution (50 μg/mL) was added to the resulting cell pellets. The mixture was allowed to stand at 4° for 30 min. The DNA amounts of the cells were analyzed by FACScan Cytometry (Becton Dickinson) (see FIG. 2).
MCF-7 cancer cells (1×10^6) in a 100-mm dish were treated with various concentrations of NBM-HD-1 (0, 2.5, 5, and 10 μg/mL) or 4 mM sodium butyrate for 72 hours. The samples were prepared following the steps mentioned in [0063]. The DNA of the cells was then analyzed by FACScan cytometry (Becton Dickinson). […] The percentage of G0/G1 phase increased from 74.46 to 92.55 in a dose-dependent manner.

GFAP = GFAP expression in C6 glioma cells (immuno-fluorescent staining, RT-PCR); assay type: cell-based, rat
Procedure: After the C6 glioma cells were incubated with 10 μg/mL NBM-HD-1 for 24 hours, they were fixed and analyzed by the traditional immuno-fluorescent staining method. Staining of glia was carried out by using glial-specific GFAP antibody (SIGMA) as the primary antibody and a fluorescence labeled rabbit immuno-globulin (SIGMA) as the secondary antibody to bind with the primary antibody. The cells which are GFAP-positive were excited by a specific light source to emit fluorescence. Also, the nuclei were stained with DAPI. […] In contrast with the control group, more GFAP proteins were detected in the photos of the cells being treated with 10 μg/mL of NBM-HD-1.
The GFAP mRNA expression was examined by RT-PCR.

[1] = test system: human giloblastoma DBTRG-05MG cancer cells; assay: Growth and morphology of human giloblastoma DBTRG-05MG cancer cells; assay type: cell-based; settings: 72 hours
Procedure: The human giloblastoma DBTRG-05MG cancer cells were cultured in RPMI medium 1640 (Gibco) supplemented with penicillin G, streptomycin sulphate, 0.5 mM of L-glutamine and 10% fetal bovine serum (FBS; Gibco), 100 mh/L sodium pyruvate (Gibco), and 1% NEAA (Gibco) at 37° C., 5% CO2 and 95% relative humidity. For these experiments, the cells were seeded at a density of 3×10^5 per well of 6-well plates. After 24 hours, the cells were treated with different concentrations of NBM-HD-1 and 4 mM sodium butyrate. The cells were observed and counted after 72 hours. […] In 05MG cells (FIG. 7(A)), after incubation with 2.5 μg/mL (FIG. 7(A)-b), 5 μg/mL (FIG. 7(A)-c) and 10 μg/mL (FIG. 7(A)-d) of NBM-HD-1 for 72 hours, the density of the cells reduced dramatically in comparison with that of the control group (FIG. 7(A)-a). The 05MG cells in the experimental group also changed to become longer than those in the control group.

p21 = assay: RT-PCR of p21 mRNA in MCF-7 cells; assay type: cell-based, human; settings: different doses, 24 hours
Procedure: The cell cycle related to p21 mRNA expression was examined by RT-PCR. The total RNAs were isolated from the treated MCF-7 cells and used in the RT reaction. cDNA (1 μl) was used as a template to amplify p21 gene by PCR. GAPDH was used as an internal control. […] In this experiment, MCF-7 cells were treated with different doses of NBM-HD-1 for 24 hours.

cortical neurons = assay: Neurite outgrowth of cortical neurons from fetal rat neural stem cells; assay type: cell-based, Wistar rat; settings: 0.63 μg/mL, 6 days, vs DMSO control
Procedure: The growth medium for the NSCs (neural stem cells) and cortical neurons was prepared by adding penicillin G, streptomycin and 0.5 mM of L-glutamine into a B-27 supplemented neurobasal medium (Gibco). The unborn fetus was taken out of the fetal sac in the abdominal cavity of a 17-day pregnant Wistar rat under anesthesia. The cerebral tissue was removed from the fetus and treated with 0.1% trypsin solution at 25° C. for three minutes. After washing with PBS solution 3 times, the cells were dissociated by up and down mixing. The resulting solution was passed through a 70 μm Nylon cell strainer (Falcon) in order to obtain the filtrate that contained cerebral cells. The filtrate was centrifuged at 1000 rpm for 10 minutes and the supernatant was aspirated. The resulting pellet was resuspended in the growth medium prepared as stated above. The resulting suspension contained NSCs.
The cells obtained from the suspension were cultivated in 6-well plates coated with 30 μg/ml of poly-D-lysine (Sigma) at the density of 75 cells/mm^2. The cells were cultured at 37° C., 5% CO2 and 95% relative humidity. The growth media contained 0.63 μg/mL of NBM-HD-1 and the growth media with 1 μl of DMSO was used as the control. […]
After cultivation for 6 days, live cells were observed by microscope. The lengths of the neurites of the neurons in 6 different fields were measured and averaged. […]

rat C6 glioma cells = assay: Cell cycle / DNA content of C6 glioma cells by FACScan cytometry; assay type: cell-based; settings: 0, 2.5, 5, 10 μg/mL, 72 hours, PI staining
Procedure: as §1

COc1cc2c(c(OC)c1CCC(C)(C)O)C(=O)C[C@@H](c1ccc(OC)c(OC)c1C/C=C(\C)CCCC(C)(C)O)O2 [NBM-HD-1]
cell cycle of MCF-7 cells (MCF-7 cancer cells; 0, 2.5, 5, 10 μg/mL): arrested on the G0/G1 phase in a dose-dependent manner | S and G2/M phases of the cells (MCF-7 cancer cells; MCF-7, 0, 2.5, 5, 10 μg/mL): significantly decreased both S and G2/M phases of the cells in a dose-dependent manner | GFAP expression (immuno-fluorescent staining) (GFAP; 10 μg/mL, 24 hours): can induce the GFAP expression of C6 glioma cancer cells | GFAP mRNA expression (GFAP; RT-PCR): increased in a dose-dependent manner | morphology of 05MG cancer cells ([1]; 2.5, 5, 10 μg/mL): change the morphology of 05MG cancer cells | growth of 05MG cancer cells ([1]; NBM-HD-1 2.5, 5, 10 μg/mL or 4 mM sodium butyrate): can inhibit the growth of 05MG cells in a dose-dependent manner | p21 mRNA expression (p21): induced the expression of p21 in a dose-dependent manner | neurite outgrowth (length of the neurites) (cortical neurons): could promote the neurite outgrowth | cell cycle of C6 glioma cells (rat C6 glioma cells): cell cycle arrest on the G0/G1 phase in a dose-dependent manner
